Test results from publication PMC10819565, “Effects of H2-Receptor Antagonists on the Exposure of Dacomitinib” (Pharmaceutics, 2024).
In brackets after ≈: the same amount, converted by molar mass. Like-named read-outs stand apart in the source and are kept apart here.

How the values were obtained:
[1] = Within-patient comparison of steady-state trough concentrations (Ctrough,ss) with and without concomitant H2RA, pooled data from 11 clinical studies; type: in vivo, human; conditions: for Ctrough,ss Geometric Mean (Geometric CV%), Test / Ctrough,ss Geometric Mean (Geometric CV%), Reference: patients, dose normalized to 45 mg QD; for Ctrough,ss Geometric Mean (Geometric CV%), Test: dacomitinib co-administered with H2RA (at least 3 days); for Ctrough,ss Geometric Mean (Geometric CV%), Reference: dacomitinib without H2RA
Protocol: This analysis included data from 11 clinical studies. Patients in these studies who received continuous oral dosing schedule of dacomitinib at dose levels of 45 mg once daily (QD), 30 mg QD, 15 mg QD and 60 mg QD, with a cycle duration of 28 days, are included in the analysis dataset. All trials were conducted in accordance with the International Council on Harmonization Good Clinical Practice guidelines and the provisions of the Declaration of Helsinki. The institutional review board or independent ethics committee at each participating center approved the protocol. All patients provided written informed consent before enrollment.
Patients in the 11 studies who received continuous oral dosing schedule of dacomitinib at dose levels of 45 mg once daily (QD), 30 mg QD, 15 mg QD and 60 mg QD, with a cycle duration of 28 days, are included in the analysis dataset. […] PF-05199265 has been identified to have an inhibitory and selectivity profile similar to the parent molecule. For each patient, steady-state trough concentrations (Ctrough,ss) were defined as an observed concentration collected at the nominal predose (0 h) time point on Day 1 of Cycle 2 through Cycle 10 with at least 14 days of continuous dacomitinib dosing at one dose level. Ctrough,ss were dose normalized to 45 mg, calculated as Ctrough,ss times 45 mg/dose for the analysis and reporting.
The Ctrough,ss values were used to represent steady-state exposure in patients following administration of 45 mg QD dacomitinib.
The Ctrough,ss collected prior to any reported H2RA use or at least 14 days after the last reported date of H2RA use served as the dacomitinib without H2RA reference. Dacomitinib co-administered with H2RA as the comparator was defined as Ctrough,ss collected after the use of any reported H2RA continuously for at least 3 days. The H2RAs reported in these studies included cimetidine, famotidine, nizatidine and ranitidine.

[2] = Disposition PK parameters fitted to intravenous data from the absolute bioavailability study in healthy volunteers; type: in vivo, human; conditions: automatic estimation using PK Plus based on IV data from clinical study
Excerpt: (§1) PBPK modeling was used to evaluate the effect of changes in gastric pH on dacomitinib absorption. With physicochemical properties (e.g., Log P, pKa, mean precipitation time) and solubility data at different pH for dacomitinib, a two-compartment model coupled to the ACAT model was built using Gastroplus^TM version 9.7 (Simulation Plus, Inc., Lancaster, CA, USA) with default fasted gut physiology. Disposition PK parameters for dacomitinib were derived by initially fitting the PK data after intravenous (IV) administration from a study where the absolute bioavailability of dacomitinib was estimated by comparing oral to intravenous administration of dacomitinib in healthy volunteers.

[3] = healthy volunteers, cited from earlier work; for AUCinf Observed / Cmax Observed: 45 mg oral
[4] = Oral absorption PBPK model (GastroPlus ACAT) simulations and gastric pH parameter sensitivity analysis; parameters: species or system human; conditions: 45 mg oral
Excerpt: as §1
The model that utilized the default physiological conditions of Gastroplus was used to simulate the plasma profiles for a 45 mg oral dose in healthy volunteers from the same study. […] The modified model was developed by optimizing the absorption scale factor (ASF) model based on the clinical PK data to reflect the prolonged Tmax of the plasma profile since all the systemic PK parameters were fixed after fitting the IV profile.
The model was validated using the mean plasma profiles of dacomitinib under 3 different conditions or treatments (fasted, fed, and PPI treatment using rabeprazole 40 mg administered QD for 7 days) following oral administration of a 45 mg dose in a clinical study in healthy volunteers to evaluate the food effect and effect of PPIs. In this study, PK samples were collected at the same nominal times of 0, 1, 2, 4, 6, 8, 12, 24, 48, 72, 96, 120, 144, 168, 192, 216 and 264 h post-dose. The mean plasma drug concentration–time profile of dacomitinib was obtained for each condition, namely fasted, fed and PPI treatment, and respective exposure parameters (Cmax and AUCinf) were derived from Gastroplus. The simulation was conducted using Gastroplus with the default physiological conditions of fasted or fed and by setting the gastric pH in the model to 6.0. This allowed for the simulation of the situations corresponding to fasted, fed and PPI treatment, respectively.
The gastric pH in the PBPK model was manipulated to enable the evaluation of a range of pH values from 1.0 to 6.0 during pharmacokinetic (PK) simulations. Parameter sensitivity analyses (PSAs) were performed on the PBPK model to assess the impact of pH variations from 1.0 to 5.0, which mimicked the effect of H2RAs on the absorption of dacomitinib.

[5] = parameters: method as in ref 26 = [26]; 26. US Food and Drug Administration (FDA) VIZIMPRO ® (Dacomitinib) Review Available online: https://www.accessdata.fda.gov/drugsatfda_docs/nda/2018/211288Orig1s000ChemR.pdf (accessed on 6 November 202); conditions: cited from earlier work
[6] = parameters: method as in ref 26 = [26]; 26. US Food and Drug Administration (FDA) VIZIMPRO ® (Dacomitinib) Review Available online: https://www.accessdata.fda.gov/drugsatfda_docs/nda/2018/211288Orig1s000ChemR.pdf (accessed on 6 November 202); conditions: base; cited from earlier work
[7] = parameters: method as in ref 26 = [26]; 26. US Food and Drug Administration (FDA) VIZIMPRO ® (Dacomitinib) Review Available online: https://www.accessdata.fda.gov/drugsatfda_docs/nda/2018/211288Orig1s000ChemR.pdf (accessed on 6 November 202); conditions: cited from earlier work; remark: listed apart in the source
[8] = parameters: method as in ref 2 = [2]; 2. US Food and Drug Administration (FDA) VIZIMPRO ® (Dacomitinib) Prescribing Information Available online: https://www.accessdata.fda.gov/drugsatfda_docs/label/2018/211288s000lbl.pdf (accessed on 6 N); conditions: with 20 mL locally acting antacid (Maalox Maximum Strength, 400 mg/5 mL); cited from earlier work
[9] = co-administration with PPI (rabeprazole 40 mg QD for 7 days)
[10] = single 45 mg dose after 7 days of rabeprazole 40 mg

Ctrough,ss Geometric Mean (Geometric CV%), Test [1]: 53.2 ng/mL
Ctrough,ss Geometric Mean (Geometric CV%), Test ([1]; listed as Dacomitinib): 53.2 (18.7) ng/mL
Ctrough,ss Geometric Mean (Geometric CV%), Reference [1]: 57.56 ng/mL
Ctrough,ss Geometric Mean (Geometric CV%), Reference ([1]; listed as Dacomitinib): 57.56 (8.4) ng/mL
Ctrough,ss Geometric Mean Ratio test/reference (90% CI) ([1]; with H2RA vs without H2RA, adjusted, linear mixed effects model): 85.88 (72.9, 101.11) %
K12 [2]: 0.033 h⁻¹
K21 [2]: 0.038 h⁻¹
V2 [2]: 19.018 L/kg
Vc [2]: 21.9 L/kg
clearance ([2]; human, plasma, two-compartment model, healthy volunteers): 602 mL/min
Ratio of AUCinf (predicted-to-observed) ([4]; co-administration with PPI): 0.857
Ratio of Cmax (predicted-to-observed) ([4]; co-administration with PPI): 0.940
Ratio of AUCinf (predicted-to-observed) ([4]; fasted state): 1.00
Ratio of Cmax (predicted-to-observed) ([4]; fasted state): 1.01
Ratio of AUCinf (predicted-to-observed) ([4]; fed state): 1.07
Ratio of Cmax (predicted-to-observed) ([4]; fed state): 0.952
SMILES: COc1cc2ncnc(Nc3ccc(F)c(Cl)c3)c2cc1NC(=O)/C=C/CN1CCCCC1 [dacomitinib]
AUCinf Observed [3, 9]: 715.96 ng·h/mL
Cmax Observed [3, 9]: 9.125 ng/mL
AUCinf Observed ([3]; fasted state): 1171 ng·h/mL
Cmax Observed ([3]; fasted state): 18.41 ng/mL
AUCinf Observed ([3]; fed state): 1163 ng·h/mL
Cmax Observed ([3]; fed state): 21.35 ng/mL
decrease of AUC ([3]; co-administration with multiple doses of rabeprazole (a PPI)): 39%
reduction of AUC0-96 [3, 10]: 39%
reduction of Cmax [3, 10]: 51%
LogP ([5]; cationic): 1.8
LogP ([5]; neutral): 5.3
pKa [6]: 5.03 (base)
Solubility ([7]; pH 1.28): 10.0 mg/mL (≈ 21300 µM)
Solubility ([7]; pH 4.71): 3.7 mg/mL (≈ 7870 µM)
Solubility ([7]; pH 5.09): 0.34 mg/mL (≈ 723 µM)
Solubility ([7]; pH 5.17): 0.23 mg/mL (≈ 489 µM)
Solubility ([7]; pH 5.3): 0.16 mg/mL (≈ 340 µM)
Solubility ([7]; pH 6.13): 0.006 mg/mL (≈ 12.8 µM)
Solubility ([7]; pH 6.94): 0.001 mg/mL (≈ 2.13 µM)
changes in dacomitinib concentrations [8]: did not cause clinically relevant changes
